What was measured:
[1] = tested on: NF-κB; assay: EMSA of NF-κB translocation / DNA binding in A549 cells; details: for NF-κB Stimulation / level of NF-κB translocation, fragments versus flagellin: A549 cells; for NF-κB Stimulation: 1 μg/ml, 45 min, EMSA of whole cell extracts; for level of NF-κB translocation, fragments versus flagellin / inducing NF-κB translocation: EMSA; for inducing NF-κB translocation: nuclear extracts of treated A549 lung cancer cells
[2] = tested on: NF-κB; assay: EMSA of NF-κB binding activity in HT29 human colon cancer cells; assay type: cell-based; details: fragments 1 mg/ml, 15 min
Method: We further minimized the AA′ flagellin fragment by producing additional fragments through stepwise removal of peptide fragments from its N-terminal half (Table 2). […] NF-κB binding activity in HT29 cells was stimulated with TNFa (10 ng/ml), or flagellin fragments (1 mg/ml) for 15 min.

[3] = tested on: mice treated with total body gamma radiation; assay: Mouse survival after total body gamma irradiation (radioprotection); assay type: in vivo; details: s.c. 5.0 μg/mouse (0.2 mg/kg)
Method: Whole body irradiation of mice with 15 Gy gamma radiation caused death within 8 days from GI syndrome providing a conventional model of radiation induced damage of GI tract. To test whether flagellin was capable of protecting GI epithelium from IR, we tested the effect of i.v.-injected flagellin on the dynamics of mouse lethality after 15 Gy of radiation. […] Irradiation was done 4 hours post treatment. As expected, control irradiated mice (that received PBS i.v.) died between 5 and 8 days post-treatment. […] Intravenous, intraperitoneal and subcutaneous delivery of 0.2 mg/kg of flagellin followed by 13 Gy irradiation afforded similar degree of protection, leading to 85-90% 30-day survival of mice (data not shown). While not being bound by theory, flagellin may be a radioprotectant due to its activation of NF-κB, which presumably acts as an inhibitor of apoptotic death.
The experiments were done similarly to the above-described ones (FIGS. 14 and 15), however, instead of 15Gy, mice received 10Gy, the dose that caused 100% killing in control group by day 13 (FIG. 6).
In order to further estimate the dependence of radioprotective activity of flagellin on the time of treatment, mice were injected at several time points relative to the moment of gamma-irradiation. Experiments were performed essentially as explained above, using intraperitoneal injection of 5 μg/mouse (0.2 mg/kg) of full-length flagellin or, for control mice, 5 μg/mouse (0.2 mg/kg) of bacterial RNA polymerase. The experiments were performed using the NIH-Swiss mouse strain. […] Only −1 h graph is shown for clarity, however, both timepoints (−1 and −2 h) provide similar degree and dynamics of survival.
We next obtained an estimate of radiation dose-dependent protection for flagellin. As shown above (FIG. 7), treatment with flagellin was sufficient for 100% protection against 10 Gy gamma-irradiation (this dose causes death from hematopoietic syndrome) and 90% 30-day survival at 13 Gy (both hematopoietic and GI syndromes). Experiments were performed as described above, using flagellin 5 μg/mouse (0.2 mg/kg), intraperitoneally injected 1 h before irradiation.
As shown above, full-length flagellin provides protection from both hematopoietic and gastrointestinal syndromes. The radioprotective potential of flagellin fragments was similarly tested after gamma-irradiation with 11 Gy (dose that induces hematopoietic syndrome-associated mortality in mice) or 14 Gy (dose that causes death from GI syndrome). Mice (10 animals per group) were injected subcutaneously with 5.0 μg/mouse (0.2 mg/kg) of flagellin or its fragments, AA′ or BB′, and gamma-irradiated 1 hour later.
In order to explore the limits of radioprotection provided by the AA′ fragment, we irradiated mice with 17 Gy and 20 Gy single doses of total body gamma-radiation.
We tested the ability of AA′ to protect mice that were exposed to it. A group of 20 NIH-Swiss mice were subcutaneously injected with 5 μg/mouse (0.2 mg/kg) of AA′. A second injection of a equal dose of AA′ was administered after 21 (10 mice) and 28 days (another 10 mice), with the time elapsed being sufficient for formation of antibodies. The second injection of AA′ was followed by 13 Gy of whole-body gamma irradiation (1 h post-injection).
Repetitive irradiation within a short period of time may be common, for example, in space radiation events and in clinical radiotherapy regimens. We tested the ability of the AA′ flagellin fragment to protect mice from sub-lethal (4 treatments of 3 Gy) and 100% lethal (4 treatments of 4 Gy) regimens of fractionated gamma-irradiation. Fragment AA′ or saline buffer was given to NIH-Swiss female mice before every irradiation (once a day for 4 days). AA′ was administered as described above for single-dose irradiation (5 μg/mouse, given subcutaneously 1 h before irradiation). […]
We have extensively confirmed that AA′ protects NIH-Swiss and ICR mice from radiation. […]

| Molecule | NF-κB Stimulation [1] | other results |
| --- | --- | --- |
| AA′n1-70: flagellin variant N-terminal 1-70, C-terminal 402-505, SEQ ID NO: 54 | No | – |
| AA′n1-129: flagellin variant N-terminal 1-129, C-terminal 402-505, SEQ ID NO: 42 | Yes | – |
| AA′n1-163: (1-163)-Linker-(402-505), SEQ ID NO: 34 | Yes | induction of NF-κB translocation [2]: induce NF-κB translocation; level of NF-κB translocation relative to flagellin [2]: comparable to that of flagellin |
| AA′n54-129: flagellin variant N-terminal 54-129, C-terminal 402-505, SEQ ID NO: 44 | Yes | – |
| AA′n54-163: (54-163)-Linker-(402-505), SEQ ID NO: 36 | Yes | induction of NF-κB translocation [2]: induce NF-κB translocation |
| AA′n54-170: (54-170)-Linker-(402-505), SEQ ID NO: 32 | Yes | induction of NF-κB translocation [2]: induce NF-κB translocation; level of NF-κB translocation relative to flagellin [2]: comparable to that of flagellin |
| BA′: flagellin fragment (56-177)-Linker-(402-505), SEQ ID NO: 12 | Yes | level of NF-κB translocation, fragments versus flagellin [1]: comparable; inducing NF-κB translocation [1]: capable of inducing NF-κB translocation |
| CA′: flagellin fragment (56-100)-Linker-(402-505), SEQ ID NO: 16 | No | – |
| GST-A′: GST-Linker-(402-505), SEQ ID NO: 26 | No | – |
| CB′: flagellin fragment (56-100)-Linker-(402-450), SEQ ID NO: 18 (protein, Salmonella dublin) MRGSHHHHHHGMASMTGGQQMGRDLYDDDDKDPFTSNIKGLTQASRNANDGISIAQTTEGALNEINNNLQRVRELSVQATSPGISGGGGGILDSMGTLINEDAAAAKKSTANPLASIDSALSKVDAVRSSLGAIQNRFDSAITNL | No | – |
| A: flagellin N-terminus (1-177), SEQ ID NO: 20 (protein, Salmonella dublin) MRGSHHHHHHGMASMTGGQQMGRDLYDDDDKDPMAQVINTNSLSLLTQNNLNKSQSSLSSAIERLSSGLRINSAKDDAAGQAIANRFTSNIKGLTQASRNANDGISIAQTTEGALNEINNNLQRVRELSVQATNGTNSDSDLKSIQDEIQQRLEEIDRVSNQTQFNGVKVLSQDNQMKIQVGANDGETITIDLQKIDVKSLGLDGFNVNSPG | No | – |
| AB′n1-170: flagellin variant N-terminal 1-170, C-terminal 402-450, SEQ ID NO: 38 (protein, Salmonella dublin) MRGSHHHHHHGMASMTGGQQMGRDLYDDDDKDPMAQVINTNSLSLLTQNNLNKSQSSLSSAIERLSSGLRINSAKDDAAGQAIANRFTSNIKGLTQASRNANDGISIAQTTEGALNEINNNLQRVRELSVQATNGTNSDSDLKSIQDEIQQRLEEIDRVSNQTQFNGVKVLSQDNQMKIQVGANDGETITIDLQKIDVKSLGLIPGISGGGGGILDSMGTLINEDAAAAKKSTANPLASIDSALSKVDAVRSSLGAIQNRFDSAITNL | Yes | – |
| AB′n1-70: flagellin variant N-terminal 1-70, C-terminal 402-450, SEQ ID NO: 56 (protein, Salmonella dublin) MRGSHHHHHHGMASMTGGQQMGRDLYDDDDKDPMAQVINTNSLSLLTQNNLNKSQSSLSSAIERLSSGLRINSAKDDAAGQAIANRFTSNIKGLTQASRNANDIPGISGGGGGILDSMGTLINEDAAAAKKSTANPLASIDSALSKVDAVRSSLGAIQNRFDSAITNL | No | – |
| BB′: flagellin fragment (56-177)-Linker-(402-450), SEQ ID NO: 14 (protein, Salmonella dublin) MRGSHHHHHHGMASMTGGQQMGRDLYDDDDKDPFTSNIKGLTQASRNANDGISIAQTTEGALNEINNNLQRVRELSVQATNGTNSDSDLKSIQDEIQQRLEEIDRVSNQTQFNGVKVLSQDNQMKIQVGANDGETITIDLQKIDVKSLGLDGFNVNSPGISGGGGGILDSMGTLINEDAAAAKKSTANPLASIDSALSKVDAVRSSLGAIQNRFDSAITNL | No | 30-day survival, 11 Gy ([3]; 1 hour before 11 Gy): 0%; 30-day survival, 14 Gy ([3]; 1 hour before 14 Gy): 0% |
| AB′: flagellin fragment (1-177)-Linker-(402-450), SEQ ID NO: 10 (protein, Salmonella dublin) MRGSHHHHHHGMASMTGGQQMGRDLYDDDDKDPMAQVINTNSLSLLTQNNLNKSQSSLSSAIERLSSGLRINSAKDDAAGQAIANRFTSNIKGLTQASRNANDGISIAQTTEGALNEINNNLQRVRELSVQATNGTNSDSDLKSIQDEIQQRLEEIDRVSNQTQFNGVKVLSQDNQMKIQVGANDGETITIDLQKIDVKSLGLDGFNVNSPGISGGGGGILDSMGTLINEDAAAAKKSTANPLASIDSALSKVDAVRSSLGAIQNRFDSAITNL | Yes | level of NF-κB translocation, fragments versus flagellin [1]: comparable; inducing NF-κB translocation [1]: capable of inducing NF-κB translocation |
| B: flagellin N-terminus (56-177), SEQ ID NO: 22 (protein, Salmonella dublin) MRGSHHHHHHGMASMTGGQQMGRDLYDDDDKDPFTSNIKGLTQASRNANDGISIAQTTEGALNEINNNLQRVRELSVQATNGTNSDSDLKSIQDEIQQRLEEIDRVSNQTQFNGVKVLSQDNQMKIQVGANDGETITIDLQKIDVKSLGLDGFNVNSPG | No | – |
| AB′n1-163: flagellin variant N-terminal 1-163, C-terminal 402-450, SEQ ID NO: 40 (protein, Salmonella dublin) MRGSHHHHHHGMASMTGGQQMGRDLYDDDDKDPMAQVINTNSLSLLTQNNLNKSQSSLSSAIERLSSGLRINSAKDDAAGQAIANRFTSNIKGLTQASRNANDGISIAQTTEGALNEINNNLQRVRELSVQATNGTNSDSDLKSIQDEIQQRLEEIDRVSNQTQFNGVKVLSQDNQMKIQVGANDGETITIDLQKIIPGISGGGGGILDSMGTLINEDAAAAKKSTANPLASIDSALSKVDAVRSSLGAIQNRFDSAITNL | Yes | – |
| C: flagellin N-terminus (56-100), SEQ ID NO: 24 (protein, Salmonella dublin) MRGSHHHHHHGMASMTGGQQMGRDLYDDDDKDPFTSNIKGLTQASRNANDGISIAQTTEGALNEINNNLQRVRELSVQATSPG | No | – |
